SMILES strings stand for the structures.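 1) Cells in 96-well plates. 2) Compound, 48 h, 5 concentrations. 3) Linear interpolation between surrounding doses. 4) Unreached endpoint = highest concentration. GI50 marks 50% less growth. TGI denotes the concentration required for complete inhibition of growth.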 A value given as a limit tells only on which side of the number the result lay.

The test system of this experiment is MDA-MB-468 breast. The experiment can be described thus: NCI anticancer screen, dose series, 48 h.
With `COc1ccc2[nH]c(C(=O)OCc3ccc4cccc(O)c4n3)cc2c1`, the GI50 was 1370 nM and the TGI was found to be 3080 nM.
As for `COc1cc(Nc2ncnc(Nc3ccc4c(n3)NC(=O)C(C)(C)O4)n2)cc(OC)c1OC`, the GI50 was 522 nM and the TGI is > 100000 nM.
As to `COc1cccc(NC(=O)c2sc3nc4c(cc3c2N)C(O)CCC4)c1` (stereo not drawn), the GI50 was 88.1 nM and the TGI was 6700 nM.
Take `COc1cc(CN(c2ccc(C)cc2)C2OC(=O)c3ccccc32)cc(OC)c1OC` (stereo not drawn): the GI50 was 132 nM and the TGI is 527 nM.
On the same counts, the results for `Cc1nc(Sc2nc3ccc([N+](=O)[O-])cc3s2)sc1C` are 1620 nM and 3590 nM.
As for `NC(CSC(c1ccccc1)(c1ccccc1)c1ccc(F)cc1)C(=O)O` (stereo not drawn), the GI50 was 233 nM.
`CCCCCCNC(=O)Oc1ccc(/C(=C(\C)c2ccc(Cl)cc2)c2ccc(OCCN(C)C)cc2)cc1`: the GI50 is 1590 nM and the TGI was found to be 3120 nM.
In the case of `COc1cc(-c2nccc3cc4c(cc23)OCO4)cc(OC)c1OC`, the GI50 was 1620 nM and the TGI was 6240 nM.
Consider `CN1CCN(CCCOc2cccc3nc(Nc4ccc(F)c(F)c4)ccc23)CC1`, for which the GI50 was 2110 nM and the TGI is 6730 nM.
Take `O=C(Nc1ccc2c(c1)OCCO2)C(=O)c1c[nH]c2ccccc12`: the GI50 is 1090 nM and the TGI stood at 20700 nM.
For the compound `COc1ccc(-c2n[nH]nc2-c2cc(OC)c3c(c2)OCO3)cc1`, the GI50 was 23 nM and the TGI turned out to be 42600 nM.
For `CC(C)(C)c1nc(-c2cccc(NS(=O)(=O)c3c(F)cccc3F)c2F)c(-c2ccnc(N)n2)s1`, in that order: 31700 nM and > 100000 nM.
For `Oc1c(O)c(Cl)c(Cl)c(Cl)c1Cl`, in that order: 2580 nM and 7340 nM.
For `O=C(/C=C\n1cnc(-c2cc(C(F)(F)F)cc(C(F)(F)F)c2)n1)N1CC(F)(F)C1`, in that order: 697 nM and 6190 nM.
For the compound `CCc1nn2ncccc2c1-c1ccnc(NC2CC2)n1`, the GI50 is > 21200 nM and the TGI is > 25000 nM.
On the same counts, the results for `CCOC(=O)C#Cc1c(C(=O)OCC)nnn1[C@@H]1O[C@H](CO)[C@H]2OC3(CCCCC3)O[C@H]21` are 1780 nM and 3890 nM.
On the same counts, the results for `CCN(CC)c1ccc2nc3ccc(N=Nc4ccc(O)cc4)cc3[n+](-c3ccccc3)c2c1` are 1470 nM and 3610 nM.
As to `COc1ccc2c(c1)O/C(=C\c1cccc(OCC(=O)Nc3nc(C)c(C)s3)c1)C2=O`, the GI50 was 274 nM and the TGI is 2120 nM.
Turning to `Cc1c(C)c2c(c(C)c1OCC(=O)O)CC[C@@](C)(CCC[C@@H](C)CCC[C@@H](C)CCCC(C)C)O2`, the GI50 was 58100 nM and the TGI was 152000 nM.
`O=C(CSc1nc2sc3c(c2c(=O)n1-c1ccc(Cl)cc1)CCCC3)NNC(=O)Nc1cccc(C(F)(F)F)c1`: the GI50 was 2210 nM and the TGI worked out at 5360 nM.
In the case of `O=C(Oc1ccccc1)C(Br)C(Br)c1ccccc1` (stereo not drawn), the GI50 is 1610 nM and the TGI amounted to 3370 nM.
On the same counts, the results for `O=C(/C=C/c1cc(Cl)ccc1Cl)Nc1ncc(Cc2ccc(Cl)cc2)s1` are 277 nM and 3080 nM.
Regarding `CCc1nc2cc(/C=C/C(=O)NO)ccc2c(=O)n1CCc1ccc(OC)cc1`, the GI50 was 1690 nM and the TGI is 5570 nM.
For `Cn1cncc1-c1c(F)cncc1NC(=O)c1c(N)nn2cc(F)cnc12`, in that order: 1960 nM and 16200 nM.
For `Nc1ccc(-c2ccc3ncc4ccc(=O)n(-c5cccc(C(F)(F)F)c5)c4c3c2)cn1`, in that order: < 10 nM and 43.1 nM.
Take `Cc1noc(C)c1-c1cnc2c(-c3ccc(C(=O)O)cc3)cn([C@@H](C)c3ccccn3)c2c1`: the GI50 is 309 nM and the TGI came to 27200 nM.
As for `C=C1C(=O)O[C@H]2[C@H]1CC/C(COC(=O)NCCc1cccc(OC)c1)=C\CC[C@@]1(C)O[C@@H]21`, the GI50 is 850 nM and the TGI turned out to be 3270 nM.

Source of the values: PubChem BioAssay (NCI).
